Where two headings read alike, the source gives them in different places. Peptide text beside a SMILES is read from it.
How the values were obtained:
[1] = molecular target: human ATIC (Homo sapiens, UniProt P31939); experiment: AICAR Tfase inhibition assay with human ATIC; type: biochemical
[2] = molecular target: T1, AICAR Tfase activity of avian ATIC (Gallus gallus, UniProt P31335); experiment: AICAR Tfase inhibition assay
T1 sequence (P31335 1-593): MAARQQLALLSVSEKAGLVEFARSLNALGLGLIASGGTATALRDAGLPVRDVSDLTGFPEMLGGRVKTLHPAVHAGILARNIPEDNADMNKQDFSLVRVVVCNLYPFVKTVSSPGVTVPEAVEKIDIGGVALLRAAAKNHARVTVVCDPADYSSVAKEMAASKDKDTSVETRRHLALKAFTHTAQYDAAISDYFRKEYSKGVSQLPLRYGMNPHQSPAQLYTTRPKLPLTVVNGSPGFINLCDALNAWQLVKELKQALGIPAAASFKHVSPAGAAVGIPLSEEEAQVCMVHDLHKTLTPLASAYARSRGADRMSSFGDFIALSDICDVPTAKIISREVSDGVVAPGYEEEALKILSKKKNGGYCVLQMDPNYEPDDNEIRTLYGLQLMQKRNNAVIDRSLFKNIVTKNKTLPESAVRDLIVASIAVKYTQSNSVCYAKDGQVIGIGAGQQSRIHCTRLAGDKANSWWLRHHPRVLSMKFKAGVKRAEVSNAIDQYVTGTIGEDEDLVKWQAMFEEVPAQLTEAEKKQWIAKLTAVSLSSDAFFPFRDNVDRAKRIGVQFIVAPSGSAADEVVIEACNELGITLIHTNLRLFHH

[3] = molecular target: human ATIC homodimer (Homo sapiens, UniProt P31939); experiment: Size exclusion chromatography of ATIC monomer/dimer ratio; type: binding; conditions: 50 μM ATIC treated with 10 μM compound
[4] = molecular target: T2, AICAR Tfase activity of ATIC (Gallus gallus, UniProt P31335); experiment: AICAR Tfase inhibition in the presence of BSA; type: biochemical; conditions: compound at 10 μM and 50 μM; 1 mg/mL and 10 mg/mL BSA
T2 sequence (P31335 1-593): T1 sequence (P31335 1-593)

[5] = test system: MCF-7 cells; experiment: MTS-based cell proliferation; conditions: 48 hours after dosing
[6] = test system: MCF-7 cells; experiment: Live-cell imaging; type: cell-based; conditions: MCF-7, 250 μM

human ATIC, sequence (P31939 whole entry): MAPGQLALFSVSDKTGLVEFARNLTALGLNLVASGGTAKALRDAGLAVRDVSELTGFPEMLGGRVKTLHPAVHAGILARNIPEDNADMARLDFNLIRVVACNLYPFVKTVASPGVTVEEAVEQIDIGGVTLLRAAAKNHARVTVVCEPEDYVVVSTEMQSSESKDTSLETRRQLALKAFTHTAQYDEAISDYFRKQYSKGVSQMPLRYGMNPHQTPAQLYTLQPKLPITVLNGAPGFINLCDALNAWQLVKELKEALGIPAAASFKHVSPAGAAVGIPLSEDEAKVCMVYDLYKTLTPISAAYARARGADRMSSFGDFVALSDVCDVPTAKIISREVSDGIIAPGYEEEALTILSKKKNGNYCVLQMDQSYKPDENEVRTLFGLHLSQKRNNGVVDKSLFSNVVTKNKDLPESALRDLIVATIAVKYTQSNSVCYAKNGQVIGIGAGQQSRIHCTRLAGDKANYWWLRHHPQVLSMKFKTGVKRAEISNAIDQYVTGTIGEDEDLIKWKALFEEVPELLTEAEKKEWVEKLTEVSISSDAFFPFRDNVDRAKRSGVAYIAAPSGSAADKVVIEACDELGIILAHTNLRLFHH
human ATIC homodimer, sequence (P31939 whole entry): as above

Compound: CC(C)[C@@H]1NC(=O)[C@H](CC(N)=O)NC(=O)[C@H](Cc2ccccc2)NC(=O)[C@H](Cc2ccc(O)cc2)NC(=O)[C@H](CCCNC(=N)N)NC(=O)[C@H](CS)NC1=O [Compound 1, cyclo-CRYFNV] (cyclo(RYFNVC))
- Ki with human ATIC compared to the avian enzyme [1]: same Ki (within error)

Compound: CC(C)[C@@H]1NC(=O)[C@H](CC(N)=O)NC(=O)[C@H](Cc2ccccc2)NC(=O)[C@H](Cc2ccc(O)cc2)NC(=O)[C@H](CCCNC(=N)N)NC(=O)[C@H](C)NC1=O [Compound 2, cyclo-ARYFNV] (cyclo(ARYFNV))
- Ki [2]: 651 ± 25 µM

Compound: CC(C)[C@@H]1NC(=O)[C@H](CC(N)=O)NC(=O)[C@H](Cc2ccccc2)NC(=O)[C@H](Cc2ccc(O)cc2)NC(=O)[C@H](C)NC(=O)[C@H](CS)NC1=O [Compound 3, cyclo-CAYFNV] (cyclo(AYFNVC))
- Ki [2]: > 2500 µM

Compound: CC(C)[C@@H]1NC(=O)[C@H](CC(N)=O)NC(=O)[C@H](Cc2ccccc2)NC(=O)[C@H](C)NC(=O)[C@H](CCCNC(=N)N)NC(=O)[C@H](CS)NC1=O [Compound 4, cyclo-CRAFNV] (cyclo(AFNVCR))
- Ki [2]: > 2500 µM

Compound: CC(C)[C@@H]1NC(=O)[C@H](CC(N)=O)NC(=O)[C@H](C)NC(=O)[C@H](Cc2ccc(O)cc2)NC(=O)[C@H](CCCNC(=N)N)NC(=O)[C@H](CS)NC1=O [Compound 5, cyclo-CRYANV] (cyclo(ANVCRY))
- Ki [2]: 38 ± 5 µM

Compound: CC(C)[C@@H]1NC(=O)[C@H](C)NC(=O)[C@H](Cc2ccccc2)NC(=O)[C@H](Cc2ccc(O)cc2)NC(=O)[C@H](CCCNC(=N)N)NC(=O)[C@H](CS)NC1=O [Compound 6, cyclo-CRYFAV] (cyclo(AVCRYF))
- Ki [2]: 368 ± 29 µM

Compound: C[C@@H]1NC(=O)[C@H](CC(N)=O)NC(=O)[C@H](Cc2ccccc2)NC(=O)[C@H](Cc2ccc(O)cc2)NC(=O)[C@H](CCCNC(=N)N)NC(=O)[C@H](CS)NC1=O [Compound 7, cyclo-CRYFNA] (cyclo(ACRYFN))
- Ki [2]: 252 ± 22 µM

Compound: CCN(CC)C(=O)[C@H](Cc1ccc([N+](=O)[O-])cc1)NC(=O)[C@H](CCCNC(=N)N)NC(C)=O [Compound 14, Acetyl-Arg-CONH-Phe(4-NO2)-L-Diethylamide]
- Ki with human ATIC compared to the avian enzyme [1]: same Ki (within error)
- Ki ([2]; Table 2, RY analogues, avian ATIC, 25 °C): 0.685 ± 0.035 µM
- fold improvement in activity compared to capped RY dimer 8 ([2]; from Ki values of Table 2): 120 fold
- ATIC species observed by size exclusion chromatography [3]: presence of monomeric ATIC
- AICAR Tfase inhibition in presence of BSA [4]: continued to inhibit the reaction to a similar extent as observed in the absence of BSA
- inhibition of viability ([5]; MCF-7, 500 μM (maximum dose)): 40%
- effect on viability ([5]; MCF-7, 100, 250 or 500 μM): dose-dependent reduction in viability
- mechanism of effect on cell numbers ([6]; analysis of videos over 72 hours): reduction in cell division rates, rather than an increase in cell death
- reduction in proliferation compared to control-treated cells ([6]; time-lapse microscopy over 72 hours): 35%

Compound: linear-CRYFNV [reference compound]
- fold loss of activity compared to cyclo-CRYFNV ([2]; from Ki values): 8 fold

Reference: article PMC3517147 (Chembiochem : a European journal of chemical biology, 2012)
